Columns and labels:
[1] = In vitro skin penetration study (Franz diffusion cells, radiolabelled compositions); settings: barrier-impaired skin; versus fusidic acid in a monoglyceride composition, or versus composition without stabilising agent
[2] = tested on: intracellular and extracellular M. leprae; settings: cited from earlier work

SMILES | degree of retention in dermis and epidermis, comparison [1] | potency against M. leprae [2]
CC(=O)O[C@H]1C[C@@]2(C)[C@@H](C[C@@H](O)[C@H]3[C@@]4(C)CC[C@@H](O)[C@@H](C)[C@@H]4CC[C@@]32C)/C1=C(\CCC(Br)=C(C)C)C(=O)O [11-^3H 24-bromo-fusidic acid, 24-Bromo-fusidic acid] | significantly higher | –
CC(=O)O[C@H]1C[C@@]2(C)[C@@H](C[C@@H](O)[C@H]3[C@@]4(C)CC[C@@H](O)[C@@H](C)[C@@H]4CC[C@@]32C)/C1=C(\CCC=C(C)C)C(=O)O [fusidic acid, Fusidic acid] | – | highly potent
